Measured values published in patent US20120021011A1, “ANTI-INFLAMMATORY PHARMACEUTICAL COMPOSITION COMPRISING EXTRACTS FROM BROUSSONETIA PAPYRIFERA AND LONICERA JAPONICA” (Knu-Industry Cooperation Foundation, priority 2009, published 2012).

Key:
5-LOX = target: T1, 5-LOX (Rattus norvegicus, UniProt P12527); experiment: 5-LOX-mediated cysteinyl leukotriene (LTC4/D4/E4) production in A23187-treated RBL-1 cells; type: cell-based; details: 1 nM, read-out: 5-LOX inhibitory activity
T1 construct: RBL-1 cells obtained from American Type Culture Collection; endogenous in cells; host or cells: RBL-1 (rat basophilic leukemia) cells, ATCC
T1 sequence (P12527 1-673): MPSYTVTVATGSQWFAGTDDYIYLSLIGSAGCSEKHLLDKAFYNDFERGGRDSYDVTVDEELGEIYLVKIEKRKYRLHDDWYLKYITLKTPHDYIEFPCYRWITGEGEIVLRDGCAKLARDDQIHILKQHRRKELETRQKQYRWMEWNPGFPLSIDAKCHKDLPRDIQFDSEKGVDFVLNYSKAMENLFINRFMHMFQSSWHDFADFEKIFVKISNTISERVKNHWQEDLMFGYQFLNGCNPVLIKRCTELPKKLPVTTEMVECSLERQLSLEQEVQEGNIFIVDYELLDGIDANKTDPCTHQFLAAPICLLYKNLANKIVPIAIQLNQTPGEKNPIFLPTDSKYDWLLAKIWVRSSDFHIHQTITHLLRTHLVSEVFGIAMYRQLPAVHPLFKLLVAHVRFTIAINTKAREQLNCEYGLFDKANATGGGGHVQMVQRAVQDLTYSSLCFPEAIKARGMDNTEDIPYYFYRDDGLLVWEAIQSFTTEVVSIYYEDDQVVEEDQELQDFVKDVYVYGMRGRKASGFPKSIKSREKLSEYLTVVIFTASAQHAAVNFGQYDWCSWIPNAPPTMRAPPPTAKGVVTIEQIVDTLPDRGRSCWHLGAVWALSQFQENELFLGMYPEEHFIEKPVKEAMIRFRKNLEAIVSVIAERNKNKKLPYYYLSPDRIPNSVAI
Procedure: The cells were placed on 96-well plates for 2 hours, and incubated in advance with a test material for 10 minutes. The test material was dissolved in DMSO and diluted with serum-free DMEM at an appropriate concentration. The final concentration of DMSO was adjusted to be 0.1% (v/v). […] A medium used was collected and a concentration of cysteinyl leukotrienes (LTC4/D4/E4) produced by 5-LOX was measured using an ELISA kit (Cayman Chem.) according to a method recommended by the manufacturer.
It is known that when RBL-1 cells are activated by A23187 (calcium ionophore), a great amount of cysteinyl-LTs is generated by 5-LOX.

[1] = tested on: CGN-induced mouse paw edema; experiment: λ-Carrageenan (CGN)-induced mouse paw edema; type: in vivo; details: for Paw volume increased: 5 h after CGN, mean ± SD
Procedure: Mouse CGN-induced paw edema assay was performed to measure an anti-inflammatory activity according to a slightly modified method disclosed in Winter et al. (1962). […] If the volume was greater than that before the addition of CGN, it was deemed that edema developed. The test material was dissolved in a mixture including DMSO and water at a mixture ratio of 1:1 and then was orally administered. A volume of a negative control group which was not treated with CGN was 0.149±0.025 ml.

[2] = tested on: AA-induced mouse ear edema; experiment: Arachidonic acid (AA)-induced mouse ear edema; type: in vivo; details: 20 mg/kg oral
Procedure: AA-induced mouse ear edema assay was used to identify an anti-inflammatory activity in vivo in anti-inflammatory animal model. According to a method disclosed in Kim et al. (1993), 2% AA acetone solution was applied to an ear of a mouse (20 μl/ear), and after one hour, a thickness of the ear was measured using a dial thickness gauge (Mitutoyo, Japan). One hour before the AA treatment, a test material dissolved in a mixture including DMSO and water at a mixture ratio of 1:1 was orally administered to the mouse (0.1 ml/mouse).

[3] = tested on: acetic acid-induced writhing; experiment: Acetic acid-induced writhing test on mice; type: in vivo, mouse; details: for Numbers of writhings: mean ± SD
Procedure: In order to measure an antinociceptive activity, 1% acetic acid (100 μl) was intraperitoneally injected to a mouse. 10 minutes after the injection of the acetic acid, the number of writhings was counted for 10 minutes. Before the injection of the acetic acid, a test material dissolved in a mixture including DMSO and water at a ratio of 1:1 was orally administered (0.1 ml/mouse).
Each group consisted of 6 mice. Measurement values were represented by arithmetic mean±SD (a of Table 3). b of Table 3 indicates an inhibitory activity % compared to the control group treated with the acetic acid. * indicates a significant difference of P<0.05 compared to the acetic acid-treated control group.

CC(Cc1ccc(O)c(O)c1)C(C)Cc1ccc(O)c(O)c1 (stereo not shown) [NDGA, nordihydroguaiaretic acid]
inhibition at 0.001 µM (5-LOX): 99%

C[C@]12C=CC(=O)C=C1CC[C@@H]1[C@@H]2[C@@H](O)C[C@@]2(C)[C@H]1CC[C@]2(O)C(=O)CO [Prednisolone, prednisolone]
inhibitory activity % compared to the CGN-treated control group (paw edema) ([1]; 20 mg/kg oral): 50.0%
Paw volume increased ([1]; 20 mg/kg oral): 0.076 ± 0.011 mL

COc1ccc2c(c1)c(CC(=O)O)c(C)n2C(=O)c1ccc(Cl)cc1 [Indomethacin, indomethacin]
inhibitory activity % compared to the AA-treated control group (ear edema) [2]: 70%
Ear thickness increased ([2]; 1 h after AA, mean ± SD): 0.021 ± 0.013 mm
inhibitory activity % compared to the CGN-treated control group (paw edema) ([1]; 20 mg/kg oral): 23.7%
Paw volume increased ([1]; 20 mg/kg oral): 0.116 ± 0.039 mL
inhibitory activity % compared to the CGN-treated control group (paw edema) ([1]; 100 mg/kg oral): 44.7%
Paw volume increased ([1]; 100 mg/kg oral): 0.084 ± 0.019 mL

CC(=O)Oc1ccccc1C(=O)O [Aspirin, aspirin]
inhibitory activity % compared to the acetic acid-treated control group (writhings) ([3]; Exp. 1, 100 mg/kg oral): 60.9%
Numbers of writhings ([3]; Exp. 1, 100 mg/kg oral): 5.7 ± 3.8
inhibitory activity % compared to the acetic acid-treated control group (writhings) ([3]; Exp. 2, 100 mg/kg oral): 46.1%
Numbers of writhings ([3]; Exp. 2, 100 mg/kg oral): 9.6 ± 3.2
